Reference: patent US12404304B1, “Telomerase reverse transcriptase (TERT) expression enhancing compounds and methods for using the same” (Sierra Sciences, LLC, priority 2007, dated 2025)

Tests used:
[1] = test system: human TERT expression (hTERT mRNA); experiment: Quantitative real-time RT-PCR of hTERT mRNA expression (Ct, transcripts) in compound-treated cells; assay type: cell-based; details: quantitative real-time RT-PCR
Method in brief: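 Read-out is cycle threshold, the cycle at which probe fluorescence released by Taq 5′-nuclease activity crosses a set level; Ct falls as hTERT mRNA rises. cDNA of treated and untreated cells was compared, with starting transcripts quantified against a known-cDNA standard curve.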

viable cells in culture = experiment: Cell viability assay (CellTiter-Glo Luminescent Cell Viability Assay, ATP quantitation, percent of vehicle control)

SMILES	Average Number of hTERT Transcripts [1]	Average Cell Viability after 24 Hours (% DMSO) (viable cells in culture)
Cc1cccc(NC(=O)c2c(NC(=O)c3ccncc3)sc3c2CCC(C(C)(C)C)C3)c1 (centres unmarked) [compound 1233]	41.94	61.61 % DMSO
Cn1c2c(c(=O)[nH]c1=O)C(c1ccccc1)C1=C(N2)c2ccccc2C1=O (centres unmarked) [compound 1234]	62.81	53.62 % DMSO
Cn1c(=O)c2c(nc(SCc3cc4c(cc3Cl)OCO4)n2C)n(C)c1=O [compound 1235]	153.66	75.75 % DMSO
CCc1ccc(S(=O)(=O)N(C(=O)c2ccccc2)c2ccc3oc(C)c(C(C)=O)c3c2)cc1 [compound 1236]	5.24	86.61 % DMSO
CCCCOC(=O)c1c(C)oc2ccc(NS(=O)(=O)c3ccc4ccccc4c3)cc12 [compound 1237]	43.79	71.28 % DMSO
O=C(O)c1c(-c2ccccc2)c2oc3ccccc3c2[nH]c1=O [compound 1238]	5.16	89.10 % DMSO
CCCCCOC(=O)c1c(C)oc2ccc(NS(=O)(=O)c3ccc(OC)cc3)cc12 [compound 1239]	31.94	66.47 % DMSO
Cc1ccc(-n2c(=O)oc3ccc(Cl)cc3c2=O)cc1 [compound 1241]	39.79	77.91 % DMSO
COc1ccccc1-n1c(=O)oc2ccc(Cl)cc2c1=O [compound 1242]	56.42	80.60 % DMSO
COc1ccc(COC(=O)C2=C(C)NC3=C(C(=O)CC(c4ccco4)C3)C2c2cccs2)cc1 (centres unmarked) [compound 1243]	5.18	99.98 % DMSO
CCOC(=O)C1=C(C)NC2=C(C(=O)CC(c3ccccc3)C2)C1c1cccc(F)c1 (centres unmarked) [compound 1244]	9.34	80.52 % DMSO
CC1=C(C(=O)OC2CCCC2)C(c2cccc(F)c2)C2=C(CC(c3cccs3)CC2=O)N1 (centres unmarked) [compound 1245]	8.42	79.22 % DMSO
CC1=C(C(=O)OC2CCCCCC2)C(c2ccc([N+](=O)[O-])cc2)C2=C(CC(C)(C)CC2=O)N1 (centres unmarked) [compound 1246]	27.65	83.08 % DMSO
CC1=C(C(=O)OC2CCCC2)C(c2ccc(Br)cc2)C2=C(CC(C)(C)CC2=O)N1 (centres unmarked) [compound 1247]	74.16	95.77 % DMSO
COC(=O)CSC1=C(C#N)C(c2ccco2)C(C(=O)Nc2ccc(Cl)cc2)=C(C)N1 (centres unmarked) [compound 1248]	4.69	57.47 % DMSO
Brc1n[nH]c2ncnc(N3CCCC3)c12 [compound 1249]	27.87	77.92 % DMSO
Cc1cc(C2CCCCC2)n(O)c(=O)c1 [compound 1250]	184.64	67.25 % DMSO
O=S(=O)(c1cccc(F)c1)N1CCC(Oc2ccc(-n3cnnn3)cc2)CC1 [compound 1251]	23.22	65.10 % DMSO
Oc1ccc2nc(N3CCOCC3)sc2c1 [compound 1252]	4.21	96.63 % DMSO
CCC(O)c1nc2ccccc2n1CCOc1cccc(OC)c1 (centres unmarked) [compound 1253]	3.09	91.13 % DMSO
COc1ccc(OC)c(NC(=O)CSc2ccc(-c3ccccn3)nn2)c1 [compound 1254]	47.45	66.42 % DMSO
O=C(CSc1ccc(-c2ccccn2)nn1)Nc1ccc2c(c1)OCO2 [compound 1255]	56.91	76.32 % DMSO
O=C(CSc1ccc(-c2ccccn2)nn1)Nc1ccc2c(c1)OCCO2 [compound 1256]	33.82	73.30 % DMSO
O=C(CSc1ccc(-c2ccccn2)nn1)Nc1ccccc1F [compound 1257]	37.50	82.05 % DMSO
Brc1ccc(CSc2ccc(-c3ccccn3)nn2)cc1 [compound 1258]	12.89	53.72 % DMSO
COc1cc(NC(=O)CSc2ccc(-c3ccccn3)nn2)cc(OC)c1 [compound 1259]	10.70	60.54 % DMSO
Clc1cccc(CSc2ccc(-c3ccccn3)nn2)c1 [compound 1260]	17.25	60.48 % DMSO
NC(=O)C1CCN(c2nc3c(S(=O)(=O)c4cccc(Cl)c4)nnn3c3ccsc23)CC1 [compound 1261]	40.28	85.18 % DMSO

SMILES	Average Number of hTERT Transcripts [1]	Average Cell Viability after 24 Hours (% DMSO) (viable cells in culture)
CCOc1cc(Br)cc(/C=N/NC(=O)COc2cccc(C)c2)c1O [compound 1262]	8.78	57.61 % DMSO
Cc1ccc(O)c(/C=N/NC(=O)c2ccc(Br)cc2)c1 [compound 1263]	53.36	64.51 % DMSO
O=C(N/N=C/c1cc(Cl)ccc1O)c1ccc(Br)cc1 [compound 1264]	33.41	64.22 % DMSO
O=C(N/N=C/c1ccccn1)c1ccccc1 [compound 1265]	4.42	81.94 % DMSO
O=C(N/N=C/c1c(O)ccc2ccccc12)c1ccc(Cl)c(Cl)c1 [compound 1266]	14.59	50.17 % DMSO
O=C(N/N=C/c1ccccc1O)c1sc2ccccc2c1Cl [compound 1267]	3.76	38.10 % DMSO
O=C(N/N=C/C=C/c1ccccc1)c1ccccc1O [compound 1268]	14.70	80.84 % DMSO
O=C(N/N=C/c1cc(Br)ccc1O)c1cc2ccccc2cc1O [compound 1269]	93.93	68.44 % DMSO
CC(C)(C)c1ccc(C(=O)N/N=C/c2c(O)ccc3ccccc23)cc1 [compound 1270]	34.64	59.66 % DMSO
Oc1c(Br)cc(Br)cc1/C=N/Nc1ccccn1 [compound 1271]	38.63	57.70 % DMSO
Cn1cc(C(=O)N/N=C/c2c(O)ccc3ccccc23)ccc1=O [compound 1272]	33.61	57.10 % DMSO
Cc1ccc(NCC(=O)N/N=C\c2cc(Br)cc(Br)c2O)cc1 [compound 1273]	40.65	75.55 % DMSO
O=C(N/N=C/c1cc(Br)cc(I)c1O)c1ccccn1 [compound 1274]	20.59	75.52 % DMSO
C/C(=N\NC(=O)Cc1ccc(Cl)cc1)c1ccccn1 [compound 1275]	127.83	71.98 % DMSO
O=C(NNC1=C(C(=O)C(F)(F)F)CCC1)c1ccc(Br)cc1 [compound 1276]	9.73	92.70 % DMSO
Cc1occc1C(=O)N/N=C/c1cc(I)cc(I)c1O [compound 1277]	24.11	68.53 % DMSO
O=C(Cc1ccccc1)NNC1=C(C(=O)C(F)(F)F)CCC1 [compound 1278]	35.46	74.57 % DMSO
COc1cccc(C=NNC(=O)C(C)Nc2cccc3ccccc23)c1O (centres unmarked) [compound 1279]	25.71	63.90 % DMSO
Cc1cc(C(=O)N/N=C/c2cc(Br)ccc2O)c(C)o1 [compound 1280]	9.80	59.52 % DMSO
CCC(Nc1ccc(Br)cc1)C(=O)N/N=C/c1c(O)ccc2ccccc12 (centres unmarked) [compound 1281]	8.35	56.81 % DMSO
Cc1cc(C(=O)N/N=C/c2ccccc2O)c(C)o1 [compound 1282]	27.61	68.67 % DMSO
O=C(N/N=C/c1cccc2cccnc12)c1ccc2c(c1)OCO2 [compound 1283]	18.81	68.25 % DMSO
CC(Oc1cccc2ccccc12)C(=O)NN=Cc1cccc2cccnc12 (centres unmarked) [compound 1284]	44.70	73.23 % DMSO
O=c1cnnc(N/N=C/c2ccccn2)[nH]1 [compound 1285]	97.75	65.50 % DMSO
O=C(Cc1ccccc1)N/N=C/c1cccc2cccnc12 [compound 1286]	29.62	75.11 % DMSO
O=C(COc1ccc(F)cc1)N/N=C/c1cccc2cccnc12 [compound 1287]	12.08	67.01 % DMSO
COc1ccccc1OCC(=O)N/N=C/c1cccc2cccnc12 [compound 1288]	18.81	78.28 % DMSO
